These are literature values, as cited in patent US12410472B2, “Method for evaluating the eye irritation potential of chemicals” (IMMUNOSEARCH, priority 2016, dated 2025).

The data set relates to eye. The settings on record: cited from earlier work; for GHS Class: Table 6, list of solid chemicals studied; for eye irritation category as stated in text and figure legends: control chemicals and chemicals of FIG. 1 and FIG. 2.

Where two headings read alike, the source gives them in different places.

Regarding `Oc1cccc2c(O)cccc12` [1,5-Naphthalenediol], the “GHS Class” value is given as “Cat 2A”. For the same compound, the UN-GHS result (Draize test classification) is “Cat 2A”. Moreover, the “eye irritation category as stated in text and figure legends” value (from here on “eye irritation category as stated”) (listed as naphthalene dione) is “Category 2”.

Turning to `O=C(O)Cc1cccc2ccccc12` [1-Naphthalene acetic acid], the “GHS Class” value is listed as “Cat 1”. Besides, the UN-GHS result (Draize test classification) was “Cat 1”.

For the compound `CC(C)(C)CC(C)(C)c1cc(Cc2cc(C(C)(C)CC(C)(C)C)cc(-n3nc4ccccc4n3)c2O)c(O)c(-n2nc3ccccc3n2)c1` [2,2′-Methylene-bis-(6-(2H-benzotriazol-2-yl)-4-(1,1,3,3-tetramethylbutyl)phenol)], the “GHS Class” value is “No cat”; the “eye irritation category as stated” value was “No category”.

In the case of `O=C(O)CO` [Glycolic acid (10%), Glycolic acid], the UN-GHS result (Table 3, results obtained by the Draize test, liquid products) is “Cat 2B”.

As for `CCCCCCC(C=O)=Cc1ccccc1` [alpha hexyl cinnamaldehyde], the “eye irritation category as stated” value is “category 2”.

Turning to `CCCCCCCCCCCCOS(=O)(=O)[O-].[Na+]` [sodium lauryl sulfate (15%), sodium lauryl sulfate], the “eye irritation category as stated” value is reported as “category 1”.

“benzalkonium chloride [benzalkonium chloride (10%)]”: the “eye irritation category as stated” value is recorded as “category 1”.
